Reference: patent US20230097253A1, “NOVEL QUINAZOLINE COMPOUND AS THERAPEUTIC AGENT FOR METABOLIC DISORDERS” (BIOWAY., INC, priority 2020, published 2023)

Test system: steatosis-induced Huh-7 cells
Assay: Expression of lipogenesis-related proteins (western blot)
Assay type: cell-based
Conditions: Huh7 cells, 250 μM PA; 0.5, 2.5, 10 μM, 24 hours; FIG. 9-A
Procedure: To induce steatosis in Huh-7 cells in each well except for control cells, the Huh-7 cells were treated with PA bound to 2% BSA at a concentration of 250 μM except for the control, and the control cells were pretreated with 2% BSA without FA.
The cells in each well were treated with the compound of Chemical Formula 2 0.5 μM, 2.5 μM, and 10 μM and then cultured for 24 hours. The control cells and PA treated cells were treated with DMSO. All media were aspirated and the cells were gently washed 3 times with cold PBS.
A cold lysis buffer containing 150 mM sodium chloride (NaCl), 5 mM ethylenediaminetetraacetic acid (EDTA), pH 8.0, […] 4-(2-hydroxyethyl)-1-piperazineethanesulfonic acid (HEPES), 1% nonylphenoxypolyethoxylethanol (NP-40), 2 μg/mL aprotinin, 1 μM pepstatin A, 10 μM leupeptin, 1 mM sodium fluoride (NaF), 0.2 mM sodium orthovanadate ([…]), and 1 μM phenylmethylsulfonyl fluoride (PMSF) was added thereto.
A whole cell lysate was collected and gently pipetted at least 10 times to ensure complete lysis. The sample was incubated on ice for 20 minutes and centrifuged 4° C. at 13,000 rpm, for 20 minutes. […]
Images were acquired using an ImageQuant LAS 3000 (Fujifilm, Tokyo, Japan). Data were analyzed.

CC(C)C(Nc1ncnc2nc[nH]c12)c1nc2cccc(Cl)c2c(=O)n1-c1ccccc1 (centres unmarked) [BW-3290, 2-(1-((7H-purin-6-yl)amino)-2-methylpropyl)-5-chloro-3-phenylquinazolin-4(3H)-one]
level of FAS protein: decreased in a concentration-dependent manner | level of SREBP1 protein: decreased in a concentration-dependent manner
